The record followed here is the supplement of paper PMC10949913.

Molecules are shown by their SMILES.

Conditions in all cases: 48 h
Assay [1] relates to CU-ACC1. Description: AC50 viability; higher = less potent. Put shortly: (§1)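 Three adrenocortical carcinoma cell lines were exposed for 48 h to library compounds at 11 concentrations in 1,536-well plates, then read by CellTiter-Glo luminescence. Signals were scaled per plate against vehicle and empty-well controls. From fitted concentration-response curves of inhibitory or non-responding classes alone, AC50 and area under the curve were obtained.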

For assay [2], the system named is CU-ACC2. Description: AC50 viability; higher = less potent. The procedure, abridged:
as §1

In assay [3] the test system is NCI-H295R. Description: AC50 viability; higher = less potent. The procedure, abridged:
as §1

The test system of assay [4] is CU-ACC1. Description: area under concentration-response curve (viability) (AUC (a.u.)); higher = less active. The procedure, abridged: as §1
Assay [5] relates to CU-ACC2. The description is as above. The procedure, abridged:
as §1

Assay [6] has as its system NCI-H295R. The description is as above. The procedure, abridged: as §1

On to `Cc1ccc([S+](=O)([O-])Nc2cc(C(F)(F)F)ccc2C(=O)Nc2nc(-c3ccccc3)cs2)cc1`, for which the AC50 viability in the assay with CU-ACC1 [1] is 10.5 µM; in the assay with CU-ACC2 [2] it was 8.33 µM; in the assay on NCI-H295R [3], 8.33 µM. For the same compound, the results for the “area under concentration-response curve” value with CU-ACC1 [4], in the assay with CU-ACC2 [5] and in the assay with NCI-H295R [6] were 436, 499 and 479, respectively.

Take `CC(C)[C@]12O[C@H]1[C@@H]3O[C@@]34[C@@]5(C)CC\C6=C(COC6=O)/[C@@H]5C[C@@H]7O[C@]47C2=O`: the AC50 viability in the assay with CU-ACC1 [1] came to 0.0417 µM; with CU-ACC2 [2], 0.0525 µM; in the assay on NCI-H295R [3] it was 0.833 µM. In addition, the “area under concentration-response curve” value was 245 in the assay with CU-ACC1 [4], 270 in the assay with CU-ACC2 [5] and 329 in the assay on NCI-H295R [6].

For `COC(=O)N[C@H](C(=O)N1CCC[C@H]1c1ncc(-c2ccc(-c3ccc(-c4cnc([C@@H]5CCCN5C(=O)[C@@H](NC(=O)OC)C(C)C)[nH]4)cc3)cc2)[nH]1)C(C)C`, the figures for the AC50 viability in the assay on CU-ACC1 [1], with CU-ACC2 [2] and in the assay on NCI-H295R [3] were 18.6 µM, 23.5 µM and 23.5 µM, respectively. Further, the “area under concentration-response curve” value is 506 in the assay on CU-ACC1 [4], 561 in the assay with CU-ACC2 [5] and 508 in the assay on NCI-H295R [6].

`COCCOc1ccc2c(c1)ncn2-c1ccc2cccc(N3CCC(N)CC3)c2n1`: the AC50 viability worked out at 16.6 µM with CU-ACC1 [1], 10.5 µM with CU-ACC2 [2] and 6.61 µM in the assay on NCI-H295R [3]. Besides, the “area under concentration-response curve” value with CU-ACC1 [4] was determined as 409; with CU-ACC2 [5], 370; in the assay on NCI-H295R [6], 420.

For `COc1cc(CCc2cc(NC(=O)c3ccc(N4C[C@@H](C)N[C@@H](C)C4)cc3)n[nH]2)cc(OC)c1`, the figures for the AC50 viability in the assay on CU-ACC1 [1], in the assay with CU-ACC2 [2] and in the assay with NCI-H295R [3] were 10.5 µM, 11.8 µM and 9.34 µM, respectively. Further, the results for the “area under concentration-response curve” value with CU-ACC1 [4], with CU-ACC2 [5] and in the assay on NCI-H295R [6] were 445, 522 and 477, respectively.

In the case of `NC[C@@](O)(c1ccc(Cl)cc1)c1ccc(-c2cn[nH]c2)cc1`, the AC50 viability with CU-ACC1 [1] is 7.42 µM; with CU-ACC2 [2], 14.8 µM; in the assay with NCI-H295R [3], 8.33 µM. The “area under concentration-response curve” value stood at 463 with CU-ACC1 [4], 529 in the assay with CU-ACC2 [5] and 485 in the assay with NCI-H295R [6].

As to `COC(=O)c1ccc2c(c1)NC(=O)/C2=C(\Nc1ccc(N(C)C(=O)CN2CCN(C)CC2)cc1)c1ccccc1`, the AC50 viability with CU-ACC1 [1] came to 20.9 µM; in the assay with CU-ACC2 [2], 7.42 µM; in the assay with NCI-H295R [3] it was 8.33 µM. For the same compound, the “area under concentration-response curve” value came out at 504 in the assay with CU-ACC1 [4], 528 with CU-ACC2 [5] and 483 in the assay with NCI-H295R [6].

`C[C@@H](Oc1cc(-n2cnc3ccc(CN4CCN(C)CC4)cc32)sc1C(N)=O)c1ccccc1C(F)(F)F`: the figures for the AC50 viability with CU-ACC1 [1], in the assay on CU-ACC2 [2] and in the assay on NCI-H295R [3] were 11.8 µM, 16.6 µM and 11.8 µM, respectively. For the same compound, the “area under concentration-response curve” value with CU-ACC1 [4] came out at 471; with CU-ACC2 [5], 540; in the assay with NCI-H295R [6], 446.

`CO/C1=C/C(C)=C\[C@@H](C)[C@@H](O)[C@@H](C)C/C(C)=C\C=C/[C@H](OC)[C@@H]([C@@H](C)[C@@H](O)[C@H](C)[C@@]2(O)C[C@@H](O)[C@H](C)[C@@H](C(C)C)O2)OC1=O`: the AC50 viability with CU-ACC1 [1] is 0.0312 µM; with CU-ACC2 [2] it was 0.0393 µM; in the assay with NCI-H295R [3], 2.48 µM. Further, the figures for the “area under concentration-response curve” value in the assay on CU-ACC1 [4], in the assay on CU-ACC2 [5] and with NCI-H295R [6] were 388, 365 and 443, respectively.

As to `COc1cccc2c(NCc3ccccc3)nc(-n3c(N)nc4ccccc43)nc12`, the AC50 viability in the assay on CU-ACC1 [1] is 3.32 µM; with CU-ACC2 [2], 3.72 µM; in the assay on NCI-H295R [3], 3.32 µM. The “area under concentration-response curve” value was 373 with CU-ACC1 [4], 450 with CU-ACC2 [5] and 402 with NCI-H295R [6].

In the case of `C[C@H]([C@H]1C\C(=C(CO)/C(=O)O1)C)[C@H]2CC[C@H]3[C@@H]4C[C@H]5O[C@]56[C@@H](O)\C=C/C(=O)[C@]6(C)[C@H]4CC[C@]23C`, the AC50 viability was determined as 1.48 µM in the assay on CU-ACC1 [1], 0.468 µM with CU-ACC2 [2] and 1.18 µM with NCI-H295R [3]. The figures for the “area under concentration-response curve” value in the assay with CU-ACC1 [4], in the assay with CU-ACC2 [5] and with NCI-H295R [6] were 270, 393 and 401, respectively.

As to `CN(C)C/C=C/C(=O)Nc1ccc(C(=O)Nc2cccc(Nc3ncc(Cl)c(-c4c[nH]c5ccccc45)n3)c2)cc1`, the AC50 viability in the assay with CU-ACC1 [1] came to 0.661 µM; with CU-ACC2 [2] it was 0.332 µM; with NCI-H295R [3], 1.48 µM. Further, the “area under concentration-response curve” value in the assay on CU-ACC1 [4] worked out at 363; in the assay on CU-ACC2 [5], 275; in the assay on NCI-H295R [6], 406.

On to `CC[C@@]1(O)C[C@H](O[C@H]2C[C@H](N(C)C)[C@H](O[C@H]3C[C@H](O)[C@H](O[C@H]4CCC(=O)[C@H](C)O4)[C@H](C)O3)[C@H](C)O2)c2c(cc3c(c2O)C(=O)c2c(O)cccc2C3=O)[C@H]1C(=O)OC`, for which the values for the AC50 viability in the assay with CU-ACC1 [1], in the assay with CU-ACC2 [2] and in the assay with NCI-H295R [3] were 23.5 µM, 16.6 µM and 16.6 µM, respectively. In addition, the “area under concentration-response curve” value in the assay on CU-ACC1 [4] turned out to be 453; with CU-ACC2 [5], 533; in the assay with NCI-H295R [6], 523.

For `CCOc1cc(C(=O)N2CCC(N3CCN(C)CC3)CC2)ccc1Nc1ncc2c(n1)N(C1CCCC1)c1ccccc1C(=O)N2C`, the AC50 viability with CU-ACC1 [1], with CU-ACC2 [2] and with NCI-H295R [3] was 18.6 µM each time. The “area under concentration-response curve” value is 423 in the assay on CU-ACC1 [4], 494 with CU-ACC2 [5] and 448 in the assay on NCI-H295R [6].

For `Nc1ccccc1NC(=O)c1ccc(CNc2nccc(-c3cccnc3)n2)cc1`, the AC50 viability came out at 2.09 µM with CU-ACC1 [1], 5.25 µM in the assay with CU-ACC2 [2] and 2.35 µM with NCI-H295R [3]. The “area under concentration-response curve” value in the assay with CU-ACC1 [4] turned out to be 309; with CU-ACC2 [5], 445; with NCI-H295R [6] it was 339.

`Cc1cc(F)c(C(=O)Nc2cccc(-c3nncn3C(C)C)n2)cc1-n1cnc(C2CC2)c1`: the AC50 viability in the assay with CU-ACC1 [1] worked out at 18.6 µM; in the assay with CU-ACC2 [2], 11.8 µM; in the assay with NCI-H295R [3], 18.6 µM. The “area under concentration-response curve” value in the assay with CU-ACC1 [4] came out at 427; with CU-ACC2 [5] it was 360; with NCI-H295R [6] it was 419.

As to `COC[C@H](NC(=O)c1cnc(C)s1)C(=O)N[C@@H](COC)C(=O)N[C@@H](Cc1ccccc1)C(=O)[C@@]1(C)CO1`, the AC50 viability in the assay on CU-ACC1 [1] turned out to be 0.166 µM; in the assay on CU-ACC2 [2], 0.0833 µM; with NCI-H295R [3], 0.0661 µM. In addition, the “area under concentration-response curve” value in the assay with CU-ACC1 [4] was 220; in the assay with CU-ACC2 [5], 255; with NCI-H295R [6], 276.

Regarding `CN(C)CCOc1ccc(-c2nc(-c3ccncc3)c(-c3ccc4c(c3)CC/C4=N\O)[nH]2)cc1`, the results for the AC50 viability in the assay on CU-ACC1 [1], with CU-ACC2 [2] and with NCI-H295R [3] were 16.6 µM, 20.9 µM and 14.8 µM, respectively. In addition, the “area under concentration-response curve” value in the assay with CU-ACC1 [4] stood at 398; with CU-ACC2 [5], 521; in the assay with NCI-H295R [6], 440.

On to `C=CC(=O)Nc1ccc2ncnc(Nc3ccc(OCc4cccc(F)c4)c(Cl)c3)c2c1`, for which the AC50 viability with CU-ACC1 [1] was 20.9 µM; in the assay with CU-ACC2 [2] it was 10.5 µM; in the assay on NCI-H295R [3], 10.5 µM. Besides, the “area under concentration-response curve” value in the assay on CU-ACC1 [4] was 334; in the assay with CU-ACC2 [5] it was 534; with NCI-H295R [6], 510.
